Measurements as given in PMC10584170, “Machine learning-based phenotypic imaging to characterise the targetable biology of Plasmodium falciparum male gametocytes for the development of transmission-blocking antimalarials” (PLOS Pathogens, 2023).
Read-outs that look alike come from different tables or passages of the source.

Key:
[1] = system: P. falciparum female gametocytes; assay: P. falciparum Dual Gamete Formation Assay (PfDGFA), female readout (Pfs25-positive female gametes); assay type: cell-based, Plasmodium falciparum NF54; settings: for Selectivity ratio F: HepG2 Tox50 versus female IC50; for IC50: PfDGFA, 24 h incubation with gametocytes before induction, female gamete readout, read-out: Female IC50; for HitlevelF: number of replicates with >50% inhibition in the female readout
Method in brief: (§1)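 NF54 mature gametocytes (d14), cpd 24 h 37°C hypoxic gas; trigger: xanthurenic acid ookinete medium + Cy3 anti-Pfs25, 4°C 4 min → 28°C 4 min. Male: exflagellation centres, brightfield x6. Female: Pfs25+ gametes, fluorescence, +24 h 28°C dark.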

[2] = system: P. falciparum male gametocytes; assay: P. falciparum Dual Gamete Formation Assay (PfDGFA), male readout (exflagellation); assay type: cell-based, Plasmodium falciparum NF54; settings: for Selectivity Ratio M: HepG2 Tox50 versus male IC50; for IC50: PfDGFA, 24 h incubation with gametocytes before induction, exflagellation readout, read-out: Male IC50; for HitlevelM: number of replicates with >50% inhibition in the male readout
Method in brief: as §1

HepG2 cells = assay: HepG2 cytotoxicity counter-screen; settings: cytotoxic activity against HepG2 cells
[3] = Plasmodium falciparum, PfDGFA at 2µM, 24h preincubation with gametocytes, average of replicates, read-out: Average inhibition female (%)
[4] = Plasmodium falciparum, PfDGFA at 2µM, 24h preincubation with gametocytes, replicate R1, read-out: % inhibition female (individual replicates) R1
[5] = Plasmodium falciparum, PfDGFA at 2µM, 24h preincubation with gametocytes, replicate R2, read-out: % inhibition female (individual replicates) R2
[6] = Plasmodium falciparum, PfDGFA at 2µM, 24h preincubation with gametocytes, replicate R3, read-out: % inhibition female (individual replicates) R3
[7] = Plasmodium falciparum, PfDGFA at 2µM, 24h preincubation with gametocytes, replicate R4, read-out: % inhibition female (individual replicates) R4
[8] = Plasmodium falciparum, PfDGFA at 2µM, 24h preincubation with gametocytes, average of replicates, read-out: Average inhibition male (%)
[9] = Plasmodium falciparum, PfDGFA at 2µM, 24h preincubation with gametocytes, replicate R1, read-out: % inhibition male (individual replicates) R1
[10] = Plasmodium falciparum, PfDGFA at 2µM, 24h preincubation with gametocytes, replicate R2, read-out: % inhibition male (individual replicates) R2
[11] = Plasmodium falciparum, PfDGFA at 2µM, 24h preincubation with gametocytes, replicate R3, read-out: % inhibition male (individual replicates) R3
[12] = Plasmodium falciparum, PfDGFA at 2µM, 24h preincubation with gametocytes, replicate R4, read-out: % inhibition male (individual replicates) R4
[13] = 2µM, 24h preincubation with gametocytes, average of replicates
[14] = 2µM, 24h preincubation with gametocytes, replicate R1
[15] = 2µM, 24h preincubation with gametocytes, replicate R3
[16] = 2µM, 24h preincubation with gametocytes, replicate R4
[17] = PfDGFA at 2µM, 24h preincubation with gametocytes, average of replicates
[18] = PfDGFA at 2µM, 24h preincubation with gametocytes, replicate R1
[19] = PfDGFA at 2µM, 24h preincubation with gametocytes, replicate R3
[20] = PfDGFA at 2µM, 24h preincubation with gametocytes, replicate R4

SMILES	Selectivity ratio F [1]	inhibition at 2 µM [1, 3] [%]	inhibition at 2 µM [1, 4] [%]	inhibition at 2 µM [1, 5] [%]	inhibition at 2 µM [1, 6] [%]	inhibition at 2 µM [1, 7] [%]	IC50 ([1]; Plasmodium falciparum) [nM]	HitlevelF ([1]; 2µM)	Selectivity Ratio M [2]	inhibition at 2 µM [2, 8] [%]	inhibition at 2 µM [2, 9] [%]	inhibition at 2 µM [2, 10] [%]	inhibition at 2 µM [2, 12] [%]	IC50 ([2]; Plasmodium falciparum) [nM]	HitlevelM ([2]; 2µM)	Tox50 (HepG2 cells) [µM]	Average inhibition female (%) [1, 13] [%]	% inhibition female (individual replicates) R1 [1, 14] [%]	% inhibition female (individual replicates) R3 [1, 15] [%]	IC50 [2] [nM]	further results
Fc1ccc2[nH]c(-c3ccc(-c4ccc(CNCCN5CCNCC5)cc4)cc3)nc2c1.O=C(O)C(F)(F)F [TCMDC-132866]	2.88	11.4	18	1.6	12.7	13.5	> 10000	0	12.07	63.5	59	70.4	92.2	2390	3	28.84					inhibition at 2 µM [2, 11]: 32.6%
Cc1cccc2nc(-c3ccc(-c4cccc(CNCCN5CCNCC5)c4)cc3)[nH]c12.O=C(O)C(F)(F)F [TCMDC-132867]	2.66						9110		12.97					1870		24.28					HitlevelF ([1]; 2µM, 24h preincubation): 1; inhibition at 2 µM ([1]; Plasmodium falciparum, 2µM, 24h preincubation with gametocytes prior to induction of gametogenesis, average of replicates, read-out: Average inhibition female (%)): 20.3%; inhibition at 2 µM ([1]; Plasmodium falciparum, 2µM, 24h preincubation with gametocytes prior to induction of gametogenesis, replicate R1, read-out: % inhibition female (individual replicates) R1): 12%; inhibition at 2 µM ([1]; Plasmodium falciparum, 2µM, 24h preincubation with gametocytes prior to induction of gametogenesis, replicate R2, read-out: % inhibition female (individual replicates) R2): 8.9%; inhibition at 2 µM ([1]; Plasmodium falciparum, 2µM, 24h preincubation with gametocytes prior to induction of gametogenesis, replicate R3, read-out: % inhibition female (individual replicates) R3): 0.36%; inhibition at 2 µM ([1]; Plasmodium falciparum, 2µM, 24h preincubation with gametocytes prior to induction of gametogenesis, replicate R4, read-out: % inhibition female (individual replicates) R4): 60%; HitlevelM ([2]; 2µM, 24h preincubation): 3; inhibition at 2 µM ([2]; Plasmodium falciparum, 2µM, 24h preincubation with gametocytes prior to induction of gametogenesis, average of replicates, read-out: Average inhibition male (%)): 46.3%; inhibition at 2 µM ([2]; Plasmodium falciparum, 2µM, 24h preincubation with gametocytes prior to induction of gametogenesis, replicate R1, read-out: % inhibition male (individual replicates) R1): 51.3%; inhibition at 2 µM ([2]; Plasmodium falciparum, 2µM, 24h preincubation with gametocytes prior to induction of gametogenesis, replicate R2, read-out: % inhibition male (individual replicates) R2): 52.2%; inhibition at 2 µM ([2]; Plasmodium falciparum, 2µM, 24h preincubation with gametocytes prior to induction of gametogenesis, replicate R3, read-out: % inhibition male (individual replicates) R3): 9.9%; inhibition at 2 µM ([2]; Plasmodium falciparum, 2µM, 24h preincubation with gametocytes prior to induction of gametogenesis, replicate R4, read-out: % inhibition male (individual replicates) R4): 71.6%
Fc1ccc2[nH]c(-c3ccc(-c4ccc(CNCCN5CCNCC5)cc4)s3)nc2c1.O=C(O)C(F)(F)F [TCMDC-132869]	3.35	6.1	10.8	10.6	-3.4	6.4	7180	0	12.22	66.3	55.2	84.7	92.9	1970	3	24.05					inhibition at 2 µM [2, 11]: 32.6%
FC(F)(F)c1ccc2[nH]c(-c3cccc(-c4cccc(CNCCN5CCNCC5)c4)c3)nc2c1.O=C(O)C(F)(F)F [TCMDC-132871]	1.27								6.65							10.12	25.3	24.1	40.5	1520	% inhibition female (individual replicates) R4 [1, 16]: 19.2%; IC50 [1]: 7940 nM; Average inhibition male (%) [2, 13]: 95.8%; % inhibition male (individual replicates) R1 [2, 14]: 94.1%; % inhibition male (individual replicates) R3 [2, 15]: 90.3%; % inhibition male (individual replicates) R4 [2, 16]: 100.2%
FC(F)(F)c1ccc2[nH]c(-c3cccc(-c4ccc(CNCCN5CCNCC5)cc4)c3)nc2c1.O=C(O)C(F)(F)F [TCMDC-132872]	2.18							0	9.17						3	14.49				1580	Average inhibition female (%) [1, 17]: 30.3%; % inhibition female (individual replicates) R1 [1, 18]: 24.6%; % inhibition female (individual replicates) R3 [1, 19]: 21.1%; % inhibition female (individual replicates) R4 [1, 20]: 42.9%; IC50 [1]: 6650 nM; Average inhibition male (%) [2, 17]: 72.1%; % inhibition male (individual replicates) R1 [2, 18]: 71.0%; % inhibition male (individual replicates) R3 [2, 19]: 37.9%; % inhibition male (individual replicates) R4 [2, 20]: 97.6%
COc1ccc(-c2cnc(N)c(-c3ccc(C(N)=O)cc3)c2)cc1OC [TCMDC-133349]	1.51	9.1	0.18	11.3	7.9	17.1	> 10000	0	54.05	71.3	80.4	82.4	51.1	280	3	15.14					
CNC(=O)c1ccccc1Nc1nc(Nc2ccc(CCN3CCN(C)CC3)cc2)ncc1Cl.Cl [TCMDC-133800]	0.03								5.19							0.33	7.2	6.8	-10.4	60	% inhibition female (individual replicates) R4 [1, 16]: 12.4%; Average inhibition male (%) [2, 13]: 96.7%; % inhibition male (individual replicates) R1 [2, 14]: 94.6%; % inhibition male (individual replicates) R3 [2, 15]: 98.6%; % inhibition male (individual replicates) R4 [2, 16]: 96.9%
CNC(=O)c1ccccc1Nc1nc(Nc2cccc(CS(C)(=O)=O)c2)ncc1C.O=CO [TCMDC-133809]	0.1								6.79							1.03	-2.2	-7.2	6.2	150	% inhibition female (individual replicates) R4 [1, 16]: -11.5%; Average inhibition male (%) [2, 13]: 90.9%; % inhibition male (individual replicates) R1 [2, 14]: 93.6%; % inhibition male (individual replicates) R3 [2, 15]: 92.1%; % inhibition male (individual replicates) R4 [2, 16]: 84.9%
